What was measured:
[1] = tested on: AsPC-1 cells; test: Hemi-splenectomy PDAC liver metastasis model; type: in vivo, athymic NCr-nu/nu mice; conditions: 5 mg/ml, 200 μl IP every other day
Method: Therefore, the inventors tested 4-HAP in a mouse model for PDAC metastasis. Hemi-splenectomies with 4-HAP pre-treated metastatic AsPC-1 cells were performed on nude mice which were subsequently divided into three groups: control, PBS (200 μl PBS IP injections, every other day), and 4-HAP (5 mg/ml, 200 μl IP injections, every other day). Mice were harvested at 5-weeks post-surgery, when the first mouse expired. Metastasis to the liver was observed and quantified by an in-house Matlab script that determined surface area tumor coverage.
Hemi-splenectomies were performed on athymic NCr-nu/nu mice (Charles River Laboratories) with low passage AsPC-1 cells as previously described. In short, laparotomies were performed on anesthetized mice in which the upper pole of a divided spleen was reinserted into the peritoneum while 1×10^7 AsPC-1 cells prepared in phosphate buffered saline were injected into the lower splenic pole, chased by an equal volume of phosphate buffered saline. The pancreas and splenic vessels were ligated and the peritoneum was closed.
AsPC-1 cells were pretreated with 50 μM 4-HAP or PBS 24 hr prior to injection during hemisplenectomies. […]
Quantifications of mouse livers were performed using a custom-designed Matlab script. […] The percent coverage of tumor was calculated.

[2] = tested on: NMIIA, NMIIC, ACTN4; test: Western analysis of mechanobiome protein expression; type: cell-based, human; conditions: Panc10.05 cells, overnight treatment
[3] = tested on: Panc10.05 tissue spheroids; test: Tissue spheroid dissemination and cortical actin structure; type: cell-based, human
Method: Tissue spheroids were grown by plating Panc10.05 cells on a drop of Matrigel (Becton-Dickinson) in an 8-well slide chamber (6,500 cells per well) and grown in RPMI 1640 media (2% serum, 2% matrigel, and 10 ng/ml EGF). Spheroids were grown for 14 days with regular media changes, then aspirated off the surface of the matrigel, washed with ice-cold PBS with mild centrifugation ([…], 5 min). For all 2D spreading assays, spheroids were then plated on 50 µg/ml collagen-coated 8-well coverslips (MatTek) and incubated for 48 hrs in complete PANC media with 500 nM 4-HAP or PBS control. For 3D invasion assays, spheroids were resuspended in a 1.5 mg/ml collagen solution (Life Technologies) and then plated in 8-well chambered coverslips. […] All spheroid samples were fixed in 4% paraformaldehyde for 15 min at 25° C. and permeabilized in 0.1% Triton X-100 for 15 min at 25° C. The actin cytoskeleton was visualized with rhodamine-phalloidin ([…]) for 30 min. Two-dimensional spreading was visualized with Olympus Spinning disk microscope (40× oil objective, 1.30NA) or Nikon-NSIM (100× objective, 1.4NA) with an Andor EMCCD camera controlled by NIS-Elements software. Three-dimensional invasion through collagen was visualized with an Olympus Spinning Disk microscope (20× air, 0.4NA).
Quantification of 2D spheroids plated on a thin layer of collagen was performed using a custom-designed Matlab script (Mathworks, Natick, Mass.). A maximum intensity projection of 20 z-slices was extracted from each of the images and converted to 16-bit grayscale before enhancing the pixel intensity (Matlab command: histeq). The enhanced image was then segmented into foreground and background using the Chan-Vese method (activecountour), followed by filtering of small regions (bwareaopen), and morphological erosion (imerode). The boundary from this object was then obtained (bwboundary) and average background intensity was subtracted. This method was used for more than 80% of the images. […] This option allowed the user to select a region of interest surrounding the outer edge of the spheroid (roipoly). Anything outside of this boundary was masked and subsequently not considered (regionfill). Following this, a similar binarization/background subtraction regime was implemented on the unmasked region and the boundary was traced.
For each point along the boundary, a line perpendicular to the edge was computed and the intensity along this line was used to linearize the cortex. The resultant matrix was converted into a grayscale image. The Hough Transform was used to determine the continuity of the actin belt along the edge of the cortex. Linearized cortex images were binarized using a threshold chosen to best differentiate belt from non-belt for each set of images (imbinarize), followed by filtering of small regions (bwareaopen), and morphological dilation (imdilate). The Hough Transform was performed on this image (hough), and Hough peaks and lines identified (houghpeaks, houghlines). These were used to create a continuity score defined by (E Hough line lengths)/(number of lines+length of image). In this metric, higher scores indicate a more continuous actin belt at the cortex. Additionally, we computed: a coarseness index of the cortex (std2) to describe actin distribution, the percentage of white pixels of the binarized image to characterize actin belt thickness, and the ratio of white pixels to gray pixels (greater than 0.15) to describe the distribution of fluorescence.

[4] = tested on: HL-60 cells; test: Micropipette aspiration cortical tension; type: cell-based, human; conditions: 500 nM, 1 hr
Method: The instrumental and experimental setups have been previously described (Effler J C, et al., 2006; Kee Y-S, et al., 2013). Micropipette aspiration assays were all carried out in growth media with 0.1% DMSO. For cortical tension measurements of Dictyostelium cells, pressure was applied to the cell cortex with a micropipette (2-3 m radius, Rp) to the equilibrium pressure (ΔP) where the length of the cell inside the pipette (Lp) was equal to Rp. The effective cortical tension (Teff) was calculated by applying the Young-Laplace equation: ΔP=2Teff(1/Rp-1/Rc), where Rc is the radius of the cell and ΔP is the equilibrium pressure when Lp=Rp (Derganc J, et al., 2000; Octtaviani E, et al., 2006). For creep tests on mammalian strains, a constant aspiration stress was applied over 60 s. The micropipette radius was 3.5-4.5 m. For quantification, the Lp/Rp ratio values was measured every two seconds and plotted as a function of time. A10.7 and HEK293 cells could only be aspirated at a low pressure range (0.15 nN/μm^2), while HPDE, ASPC-1, and HL-60 cells could be aspirated at higher pressure ranges (0.25 nN/μm^2) because they were stiffer.

CC(=O)c1ccc(O)cc1 [4-HAP, 4-hydroxyacetophenone]
tumor formation (liver weights and tumor coverage) [1]: reduction in tumor formation
reduction in surface tumor load (liver tumor coverage) ([1]; 5-weeks post-surgery): 50%
expression of NMIIA, NMIIC, or ACTN4 [2]: does not affect the expression
dissemination from spheroids ([3]; NMIIA knockdown, 3D collagen I, 24 hours): decreased
dissemination from spheroids ([3]; control knockdown, 3D collagen I, 24 hours): decreased
actin band continuity score ([3]; control spheroids): decreased upon treatment with 4-HAP
cortex coverage by actin bands ([3]; control spheroids): decreased cortex coverage
cortex coverage by actin bands ([3]; myo IIA knockdowns): the coverage increased
cortex coverage by actin bands ([3]; myo IIC knockdowns): unaffected by the treatment of 4-HAP
increase in median percentage staining of actin at tissue edge ([3]; myosin IIA knockdown spheroids, 2D): 2 fold
dissemination from spheroids ([3]; myosin IIC-depleted spheroids): no effect was observed
actin band continuity score ([3]; shIIA spheroids, p=0.01): increased significantly
actin belt formation ([3]; when myosin IIC is present): Actin belts are formed
cortical tension [4]: does not alter the cortical tension
